# Assay results reported in the METLIN SMRT retention time set (Domingo-Almenara et al. 2019).
# Experiment: gradient 5% acetonitrile 3 min, to 50% in 2 min, to 85% in 15 min, held 3 min, 100 µL/min
# Conditions: column: Zorbax Extend-C18 2.1 x 50 mm; eluents: water / acetonitrile, 0.1% formic acid
# In short: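 Over 3 months, pure standards in mixtures of ~100 molecules were run by HPLC coupled to a quadrupole time-of-flight mass spectrometer in positive and negative ionization mode. The column was a Zorbax Extend-C18 (2.1 × 50 mm, 1.8 μm) at 100 μL/min, eluted with water and acetonitrile each holding 0.1% formic acid, with 40 μL dead and 900 μL dwell volumes. Retention time was determined from adduct peaks chosen by software and checked manually.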
row,Compound,RP-LC retention time [s]
1,Cc1nnc2c(=O)n(CC(=O)NCc3ccc(F)c(Cl)c3)c3cccnc3n12,723
2,O=C(CSc1nnc2c(=O)n(-c3ccccc3)ccn12)c1ccc(Br)cc1,881
3,Cc1oc(-c2[nH]ncc2C(=O)N2CCCCC2)cc1S(=O)(=O)Nc1ccc(F)c(F)c1,780
4,CSc1ccc(-c2nc3ccccn3c2Nc2ccccc2C)cc1,794
5,COc1ccc(NC(=O)c2cc3c(s2)CN(C2CCCC2)C3)c(OC)c1,616
6,COc1cc2ncnc(Nc3ccc(Cl)cc3F)c2cc1OC,681
7,Cc1cc(C(=O)NCCCN2CCOCC2)c2cc(Br)ccc2n1,583
8,COC(=O)c1c(C)[nH]c(C(=O)N2CCC(CC(=O)NCCc3c[nH]c4ccccc34)CC2)c1C,722
9,COc1ccc2c(c1)C=C(C(=O)Nc1ccc(OC)cc1OC)C=CO2,699
10,COc1ccc(NC(=O)Cn2cccc(-c3nc(-c4ccc(OC)c(OC)c4)no3)c2=O)cc1Cl,814
11,CC(C)CNC(=O)C1CCN(c2nc3ccc(-c4cncnc4)nc3s2)CC1,663
12,Cn1cc(C(=O)C(=O)N[C@H]2CN3CCC2CC3)c2ccccc21,672
13,Cc1ccc(N2C(=O)CN(S(=O)(=O)c3ccccc3)CC2(C)C(=O)NC2CCCC2)cc1 (configuration not stated),917
14,Cc1ccc(Cl)cc1NC(=O)N1CCC(n2cnnc2C2CC2)C1 (configuration not stated),653
15,O=C(C1CCCN(c2ncc(-c3cccc(F)c3)cn2)C1)N1CCC(N2CCCCC2)CC1 (configuration not stated),689
16,COc1cc(CN2C[C@@H]3C(=O)N(C)C(=O)[C@@H]3C2)cc(OC)c1,585
17,O=C(NC1CCN(Cc2ccccc2)CC1)c1csc(-c2ccc(N3CCCC3)nc2)n1,565
18,Cc1cccc2nnc(N3CCN(C(=O)c4cccc(Cl)c4)CC3)n12,584
19,O=C(Cc1nnc(-c2cnccn2)o1)Nc1cccc(F)c1,679
20,CCN1C(=O)C2(CCN(S(=O)(=O)c3ccc4c(c3)CCCC4)CC2)c2ccccc21,1220
21,O=C(NC1CCN(c2cc(-c3ccccc3)[nH]n2)C1)c1cccc(F)c1 (configuration not stated),717
22,CCN1C(=O)c2cc(C(=O)NCc3ccccc3Cl)nn2CC1(C)C(=O)NC1CCCC1 (configuration not stated),817
23,Cc1ccccc1CC(=O)NCC(=O)Nc1nc2ccccc2[nH]1,639

row,Compound,RP-LC retention time [s]
1,COc1ccc(C2c3c(oc4cc(C)c(C)cc4c3=O)C(=O)N2CCCN2CCOCC2)cc1OC (configuration not stated),766
2,CS(=O)(=O)N1CCOc2ccc(CCC(N)=O)cc2C1,628
3,Cc1cc2[nH]c(C(=O)Nc3ccccc3F)c(CN(C)C)c2s1,654
4,CCC(CC)N1CCN(S(=O)(=O)c2cc(-c3[nH]ncc3C(=O)N(C)C)oc2C)CC1,577
5,Cn1nc(-c2nnc(-c3ccccc3)o2)c2c1CCN(S(=O)(=O)c1ccc3c(c1)CCCC3)C2,1110
6,CCOC(=O)N1CCC2(CC1)OC(=O)C(C)=C2C(=O)Nc1cc(OC)cc(OC)c1,864
7,COc1ccc(NC(=O)Nc2cccc(-c3ccc(N4CCOCC4)nn3)c2)cc1F,675
8,O=C(NCCc1ccsc1)c1ccc(Cl)c(Cl)c1,933
9,COc1cccc(NS(=O)(=O)c2cc3n(c2)CCN(C)C3=O)c1,674
10,O=c1c2cc(-c3ccccc3)nn2ccn1Cc1noc(CN2CCc3ccccc3C2)n1,818
11,Cc1ccn2cc(C(=O)NCCN(C)C3CCCCC3)nc2c1,572
12,O=C(Cn1cccn1)N1CCN(c2cccc(Cl)c2Cl)CC1,782
13,Cc1cc(S(=O)(=O)N2CCC(n3cnnc3-c3ccccc3)CC2)ccc1F,840
14,CCc1ccc(S(=O)(=O)N2C[C@@H](F)C[C@H]2C(=O)N2CCCCC2)cc1,866
15,C=CCNC(=O)c1cnn(-c2ccc(-c3nc(C(C)(C)C)no3)cn2)c1C,759
16,COc1cc(CNC(=O)CCc2ccc(C(F)(F)F)cc2)cc(OC)c1OC,809
17,O=C(NCC(F)(F)F)C1CCN(C(=O)COc2ccccc2)CC1,676
18,CC(=O)c1ccc(OC(=O)c2cc3c(C)nn(-c4ccccc4)c3s2)cc1,1310
19,O=C(Cn1nc2c(cc1=O)CCCCC2)Nc1nc(-c2ccccn2)cs1,655
20,Cc1noc(C)c1C(=O)N1CCCC1Cc1noc(-c2cnccn2)n1 (configuration not stated),661
21,O=C(Cn1cc(S(=O)(=O)c2ccccc2)c2ccccc21)NCc1ccc2c(c1)OCO2,829
22,COc1ccc2c(c1)CCc1sc(NC(=O)c3ccc(Br)cc3)nc1-2,1190
23,Cc1c(C(=O)OCC(=O)Nc2cccc(Cl)c2)nnn1-c1ccccc1,946

row,Compound,RP-LC retention time [s]
1,Cc1nnc2n1CCN(C(=O)c1cc(-c3ccccc3)n[nH]1)C2,608
2,COC(=O)C1=CN(c2ccccc2C)c2cc(F)ccc2S1(=O)=O,832
3,Cc1ccc(NC(=O)NCC(c2cccnc2)c2cn(C)c3ccccc23)c(C)c1 (configuration not stated),720
4,CNC(=O)C1CCCN(S(=O)(=O)c2ccc(OC)c(OC)c2)C1 (configuration not stated),657
5,CC(C)NC(=O)Cn1c2ccccc2n2c(=O)cc(-c3cccc(Cl)c3)nc12,926
6,CCCC(CCC)C(=O)NCCS(=O)(=O)N1CCN(c2ccccn2)CC1,594
7,Cn1nccc1C(=O)NC1CCCN(c2cc(N3CCCC3)ncn2)C1 (configuration not stated),590
8,CCOc1ccc(Cl)cc1S(=O)(=O)N1CCC(C(=O)N2CCCC2)CC1,820
9,CCN(CC)C(=O)N1CC(Oc2ccc(-c3noc(COC)n3)cc2)C1,845
10,CCCn1c(=O)sc2cc(S(=O)(=O)N3CCC(C(=O)N(C)Cc4ccccc4)CC3)ccc21,985
11,Cc1cccc(-c2noc(Cn3ccnc3)n2)c1,630
12,Cc1nnc(-c2nnc(N3CCCC3)c3ccccc23)o1,568
13,CCOc1cc(=O)n2c(c1C(=O)Nc1cc(Cl)ccc1F)CCCC2,806
14,O=S(=O)(NCC(O)C1CCCCC1)c1cccc2ccccc12 (configuration not stated),902
15,Cc1cc(-c2nnc(-c3ccccc3)o2)c(C)n1CC(=O)N1CCN(c2ccccn2)CC1,649
16,CCc1ccc(N2C(=O)CC(N3CCC(C(N)=O)CC3)C2=O)cc1 (configuration not stated),593
17,CCOC(=O)N1CCC(NC(=O)c2nc(-c3cnccn3)no2)CC1,631
18,O=C(Nc1nc2ccccc2s1)c1ccc([N+](=O)[O-])cc1Cl,877
19,O=C(Cn1c(=O)nc(N2CCCCC2)c2ccccc21)Nc1cc(F)cc(F)c1,829
20,O=C(c1cn2ccnc(-c3ccccc3)c2n1)N1CCN(c2ncccn2)CC1,702
21,CN(C)C[C@@H]1CN(c2ncccn2)C[C@H]1NC(=O)c1ccc2ncccc2c1,557
